# Assay results taken from ChEMBL document CHEMBL1126371, “Indazole and indoline as aromatic bioisosteres in the imidazole class of serotonin 5-HT3 receptor antagonists” (Bioorg Med Chem Lett, 1992).
# Calls of active or inactive are those of the source. The rule behind the calls is not given here.
# Tests used:
# Rattus norvegicus [1] = test: Dose required for inhibition of bradycardia induced by a submaximal dose (iv) of 5-HT in 6 rats; type: functional; details: read-out: ID50 (the source's name)
# Rattus norvegicus [2] = test: Dose required for inhibition of bradycardia induced by a submaximal dose (iv) of 5-HT in 3 rats; type: functional; details: read-out: ID50 (the source's name)
# Rattus norvegicus [3] = test: Dose required for inhibition of bradycardia induced by a submaximal dose (iv) of 5-HT in 5 rats; type: functional; details: read-out: ID50 (the source's name)
# Rattus norvegicus [4] = test: Time required to achieve 50% recovery of Bezold-Jarisch reflex in 4 rats at a dose of 6 ug/kg, iv; type: functional
# [5] = target: T1, 5-hydroxytryptamine receptor 1A (Rattus norvegicus) (UniProt P19327); test: Tested for the effect on binding at 5-hydroxytryptamine 1A receptor; No activity
# T1 sequence (whole entry): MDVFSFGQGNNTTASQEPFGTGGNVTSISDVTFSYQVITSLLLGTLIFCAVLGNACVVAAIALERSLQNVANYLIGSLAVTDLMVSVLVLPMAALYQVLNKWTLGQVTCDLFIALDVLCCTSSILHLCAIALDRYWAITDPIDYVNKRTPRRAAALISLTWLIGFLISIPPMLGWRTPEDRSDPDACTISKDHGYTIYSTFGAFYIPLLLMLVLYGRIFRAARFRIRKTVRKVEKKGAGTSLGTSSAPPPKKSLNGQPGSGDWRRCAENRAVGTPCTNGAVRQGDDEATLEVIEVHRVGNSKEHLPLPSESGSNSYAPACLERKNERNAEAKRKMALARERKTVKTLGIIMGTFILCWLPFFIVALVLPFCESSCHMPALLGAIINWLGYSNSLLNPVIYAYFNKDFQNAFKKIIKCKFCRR
# Mustela putorius furo [6] = test: Reduction in the latency period to the first episode in ferret at a dose of 0.5 mg/kg, po; type: functional
# Mustela putorius furo [7] = test: Reduction in the number of episodes of emesis in ferrets at a dose of 0.01 mg/kg, po; type: functional
# Mustela putorius furo [8] = test: Reduction in the number of episodes of emesis in 4 ferrets at a dose of 0.5 mg/kg, po; type: functional
# Rattus norvegicus [9] = test: Dose required for inhibition of bradycardia induced by a submaximal dose (iv) of 5-HT in 4 rats; type: functional; details: read-out: ID50 (the source's name)
# Mustela putorius furo [10] = test: Reduction in the latency period to the first episode in ferret at a dose of 0.01 mg/kg, po; type: functional
# [11] = target: Serotonin 2 (5-HT2) receptor (Rattus norvegicus) (UniProt P30994+P08909+P14842); test: Tested for the effect on binding at 5-hydroxytryptamine 2 receptor; No activity; type: protein assay
# Sequence of Serotonin 2 (5-HT2) receptor (Rattus norvegicus) (P14842 whole entry, looked up, one chain of several): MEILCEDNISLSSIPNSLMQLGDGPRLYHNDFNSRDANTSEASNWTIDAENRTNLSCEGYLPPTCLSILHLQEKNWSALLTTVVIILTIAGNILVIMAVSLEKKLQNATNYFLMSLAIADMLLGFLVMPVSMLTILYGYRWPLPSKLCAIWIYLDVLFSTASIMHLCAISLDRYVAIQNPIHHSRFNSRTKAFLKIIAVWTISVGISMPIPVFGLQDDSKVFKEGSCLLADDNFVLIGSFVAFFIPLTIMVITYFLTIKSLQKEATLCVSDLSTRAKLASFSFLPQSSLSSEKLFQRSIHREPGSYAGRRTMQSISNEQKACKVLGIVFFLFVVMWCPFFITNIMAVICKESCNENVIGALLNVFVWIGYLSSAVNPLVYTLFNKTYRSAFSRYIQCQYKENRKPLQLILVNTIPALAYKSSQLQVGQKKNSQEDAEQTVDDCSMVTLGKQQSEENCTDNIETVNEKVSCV
# Sequence of Serotonin 2 (5-HT2) receptor (Rattus norvegicus) (P30994 whole entry, looked up, one chain of several): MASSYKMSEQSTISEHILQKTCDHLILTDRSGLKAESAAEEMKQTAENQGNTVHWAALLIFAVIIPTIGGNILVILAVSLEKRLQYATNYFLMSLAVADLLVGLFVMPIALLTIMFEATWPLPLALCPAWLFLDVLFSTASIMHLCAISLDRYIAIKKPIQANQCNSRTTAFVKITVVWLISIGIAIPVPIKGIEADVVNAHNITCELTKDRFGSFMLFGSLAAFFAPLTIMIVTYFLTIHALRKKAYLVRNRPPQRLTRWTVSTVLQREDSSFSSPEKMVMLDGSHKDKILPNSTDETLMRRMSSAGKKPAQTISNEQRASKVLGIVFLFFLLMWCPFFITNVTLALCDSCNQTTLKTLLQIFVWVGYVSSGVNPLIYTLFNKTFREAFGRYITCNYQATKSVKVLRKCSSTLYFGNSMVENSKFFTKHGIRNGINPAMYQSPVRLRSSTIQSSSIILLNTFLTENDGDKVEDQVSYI
# [12] = target: Serotonin 3 (5-HT3) receptor; test: Tested for antagonistic activity on 5-hydroxytryptamine 3 receptor mediated effects of 5-HT in guinea pig isolated ileum; type: functional, tissue-based, Cavia porcellus
# [13] = target: 5-hydroxytryptamine receptor 1D (Rattus norvegicus) (UniProt P28565); test: Tested for the effect on binding at 5-hydroxytryptamine 1D receptor; No activity
# Sequence of 5-hydroxytryptamine receptor 1D (Rattus norvegicus) (P28565 whole entry): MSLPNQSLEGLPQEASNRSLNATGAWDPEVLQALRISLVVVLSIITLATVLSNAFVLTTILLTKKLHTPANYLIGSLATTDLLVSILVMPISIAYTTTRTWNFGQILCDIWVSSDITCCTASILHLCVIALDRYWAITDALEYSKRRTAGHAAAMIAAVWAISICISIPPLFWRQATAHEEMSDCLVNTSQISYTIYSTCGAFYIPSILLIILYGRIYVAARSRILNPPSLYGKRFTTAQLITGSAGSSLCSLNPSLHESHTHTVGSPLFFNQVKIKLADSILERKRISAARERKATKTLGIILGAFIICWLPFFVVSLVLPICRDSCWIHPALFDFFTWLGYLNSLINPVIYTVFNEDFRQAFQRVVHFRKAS
# [14] = target: T2, 5-hydroxytryptamine receptor 2C (Rattus norvegicus) (UniProt P08909); test: Tested for the effect on binding at 5-hydroxytryptamine 1C receptor; No activity
# T2 sequence (whole entry): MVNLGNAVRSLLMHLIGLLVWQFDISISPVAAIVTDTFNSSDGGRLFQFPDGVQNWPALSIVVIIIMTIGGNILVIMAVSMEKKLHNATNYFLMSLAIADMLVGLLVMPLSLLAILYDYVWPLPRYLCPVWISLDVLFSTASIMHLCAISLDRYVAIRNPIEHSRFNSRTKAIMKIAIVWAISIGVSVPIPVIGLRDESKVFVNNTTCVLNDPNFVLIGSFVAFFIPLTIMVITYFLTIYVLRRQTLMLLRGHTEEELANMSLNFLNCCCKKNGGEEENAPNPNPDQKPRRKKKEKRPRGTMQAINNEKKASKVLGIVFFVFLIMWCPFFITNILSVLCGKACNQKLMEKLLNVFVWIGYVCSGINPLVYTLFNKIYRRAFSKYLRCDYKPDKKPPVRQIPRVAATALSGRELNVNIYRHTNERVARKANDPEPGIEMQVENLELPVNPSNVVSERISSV
# [15] = target: Alpha-2 adrenergic receptor (Rattus norvegicus); test: Affinity at Alpha-2 adrenergic receptor in rat brain
# Rattus norvegicus [16] = test: Percent maximum inhibition against Bezold-Jarisch reflex in 4 rats at a dose of 6 ug/kg, iv, after 5 min; type: functional
# [17] = target: 5-hydroxytryptamine receptor 4 (Rattus norvegicus) (UniProt Q62758); test: Tested for the effect on binding at 5-hydroxytryptamine 4 receptor; No activity
# Sequence of 5-hydroxytryptamine receptor 4 (Rattus norvegicus) (Q62758 whole entry): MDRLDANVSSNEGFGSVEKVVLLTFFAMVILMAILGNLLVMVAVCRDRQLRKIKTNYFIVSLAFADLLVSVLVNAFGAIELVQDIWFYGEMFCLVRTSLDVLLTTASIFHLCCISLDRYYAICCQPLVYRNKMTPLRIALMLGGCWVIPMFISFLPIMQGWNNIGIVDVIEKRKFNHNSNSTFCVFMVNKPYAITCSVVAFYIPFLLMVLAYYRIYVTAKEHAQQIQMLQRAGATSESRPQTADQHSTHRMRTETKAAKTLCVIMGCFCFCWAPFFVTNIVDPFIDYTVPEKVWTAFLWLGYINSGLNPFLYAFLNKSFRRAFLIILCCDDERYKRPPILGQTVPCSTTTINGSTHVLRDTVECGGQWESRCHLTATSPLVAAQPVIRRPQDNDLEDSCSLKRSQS
# Rattus norvegicus [18] = test: Time required to achieve 50% recovery of Bezold-Jarisch reflex in 9 rats at a dose of 6 ug/kg, iv; type: functional
# Rattus norvegicus [19] = test: Percent maximum inhibition against Bezold-Jarisch reflex in 5 rats at a dose of 6 ug/kg, iv; type: functional
# Rattus norvegicus [20] = test: Time required to achieve 50% recovery of Bezold-Jarisch reflex in 5 rats at a dose of 6 ug/kg, iv; type: functional
# Rattus norvegicus [21] = test: Dose required for inhibition of bradycardia induced by a submaximal dose (iv) of 5-HT in 7 rats; type: functional; details: read-out: ID50 (the source's name)
# Rattus norvegicus [22] = test: Dose required for inhibition of bradycardia induced by a submaximal dose (iv) of 5-HT in 8 rats; type: functional; details: read-out: ID50 (the source's name)
compound,measurement,setting,value
Cc1[nH]cnc1CCC(=O)c1nn(C)c2ccccc12,ED50,Rattus norvegicus [1],3.1 µg/kg
CC1(C)CN(C(=O)CCc2c[nH]cn2)c2ccccc21,ED50,Rattus norvegicus [2],4.2 µg/kg
COc1ccccc1NC(=O)CCc1c[nH]cn1,ED50,Rattus norvegicus [3],35 µg/kg
Cc1[nH]cnc1CCC(=O)N1CC(C)(C)c2ccccc21,Duration,Rattus norvegicus [4],66 min
same,Activity,[5],inactive
same,Latency time,Mustela putorius furo [6],90.5 min
same,Reduction,Mustela putorius furo [7],7.7
same,Reduction,Mustela putorius furo [8],1.3
same,ED50,Rattus norvegicus [9],2.2 µg/kg
same,Latency time,Mustela putorius furo [10],22.5 min
same,Activity,[11],inactive
same,pA2,[12],8.1
same,Activity,[13],inactive
same,Activity,[14],inactive
same,Log Ki,[15],-6.2
same,inhibition in vivo at 0.006 mg/kg,Rattus norvegicus [16],91%
same,Activity,[17],inactive
CN1C2CCCC1CC(NC(=O)c1nn(C)c3ccccc13)C2 (centres undefined) [GRANISETRON],Duration,Rattus norvegicus [18],46 min
Cc1nccn1CC1CCc2c(c3ccccc3n2C)C1=O (centres undefined) [ONDANSETRON],ED50,Rattus norvegicus [9],3.6 µg/kg
same,inhibition in vivo at 0.006 mg/kg,Rattus norvegicus [19],68%
same,Duration,Rattus norvegicus [20],14 min
COc1ccccc1NC(=O)NC1CC2CCC(C1)N2C (centres undefined),ED50,Rattus norvegicus [21],2.5 µg/kg
COc1ccccc1NC(=O)CCc1[nH]cnc1C,ED50,Rattus norvegicus [3],20 µg/kg
CN1C2CCC1CC(NC(=O)N1CC(C)(C)c3ccccc31)C2 (centres undefined),ED50,Rattus norvegicus [22],0.67 µg/kg
